This is an account of results in US4571408A, “α,β-Dihydropolyprenyl derivatives for treating hepatitis” (Eisai Co., Ltd., priority 1980, dated 1986).

Series [1] deals with liver disease (hepatitis) induced by D-galactosamine. Description: Activity against liver disease (hepatitis) induced by D-galactosamine. In kind it is in vivo, rats (SD strain). Conditions: test compound orally 400 mg./kg. each time (0, 4, 10, 24 h); D-galactosamine hydrochloride s.c. 200 mg./kg. (4, 10, 24 h); blood collection at 28 h; nine rats per group. How it is done:
Activity against liver disease (hepatitis) induced by D-galactosamine
D-Galactosamine hydrochloride and the above-listed compound were administered (1) subcutaneously in the dosage of 200 mg./kg. each time and (2) orally in the dosage of 400 mg./kg. each time, respectively, to rats (SD strain, weight: approximately 250 g.) according to the schedule described hereinafter. After completion of the administrations, the blood was collected from the rats and there were measured the GOT value, GPT value and alkali phosphotase value, all of which are indicative of the degree of liver disease.
Each test compound was administered in the form of a suspension thereof in a 5% aqueous gum arabic solution. The D-galactosamine hydrochloride was administered in the form of an aqueous solution thereof in distilled water adjusted to pH 7 by addition of potassium hydroxide.
There were provided the test compound groups (nine rats per each group) in which the rats were administered with the test compound and with D-galactosamine hydrochloride; a control group (fourteen rats) in which the rats were administered with a plain 5% aqueous gum arabic solution free of the test compound and with D-galactosamine hydrochloride; and a normal group (eight rats) in which the rats were not administered with either the test compound or D-galactosamine hydrochloride.
4 test compound and D-galactosamine
10 test compound and D-galactosamine
24 test compound and D-galactosamine

The test system of another series is rats (Wistar strain). In words: Toxicity (oral administration to rats). Conditions: orally, 4,000 mg./kg., ten rats (Wistar strain), suspended in 5% aqueous gum arabic solution. In kind it is in vivo. How it is done:
Each of the above-listed compounds, A, B, C and D was suspended in a 5% aqueous gum arabic solution and then was administered orally to ten rats (Wistar strain) in the dosage of 4,000 mg./kg.

For `CC(C)=CCC/C(C)=C/CC/C(C)=C/CCC(C)CC(=O)O` (stereo not shown) [Compound A, (E, E)-3,7,11,15-tetramethyl-6,10,14-hexadecatrienoic acid], in series [1], the Alkali phosphatase value is reported as 56.2 KA - u, the GOT value was determined as 312.4 carmen unit and the GPT value was 208.3 carmen unit. Also, in the series with rats (Wistar strain), the “Deaths of the rats” value is “No deaths of the rats were observed”.
As to `CCOC(=O)CC(C)CC/C=C(\C)CC/C=C(\C)CCC=C(C)C` (stereo not shown) [Compound B, ethyl (E, E)-3,7,11,15-tetramethyl-6,10,14-hexadecatrienoate], in series [1], the Alkali phosphatase value came to 55.8 KA - u, the GOT value was 307.1 carmen unit and the GPT value stood at 199.7 carmen unit. In the series on rats (Wistar strain), the “Deaths of the rats” value was “No deaths of the rats were observed”.
In series [1], `CC(C)=CCC/C(C)=C/CC/C(C)=C/CCC(C)CCO` (stereo not shown) [Compound C, (E, E)-3,7,11,15-tetramethyl-6,10,14-hexadecatrien-1-ol] yielded an Alkali phosphatase value of 54.2 KA - u, a GOT value of 337.7 carmen unit and a GPT value of 185.6 carmen unit. In addition, in the series with rats (Wistar strain), the “Deaths of the rats” value is “No deaths of the rats were observed”.
In the case of `CC(=O)OCCC(C)CC/C=C(\C)CC/C=C(\C)CCC=C(C)C` (stereo not shown) [Compound D, (E, E)-3,7,11,15-tetramethyl-6,10,14-hexadecatrienyl acetate], in series [1], the Alkali phosphatase value is given as 53.5 KA - u, the GOT value was 315.3 carmen unit and the GPT value came to 178.7 carmen unit. In the series on rats (Wistar strain), the “Deaths of the rats” value is reported as “No deaths of the rats were observed”.
